Experimental data as given in patent publication US12643910B2, “Substituted pyrazolo[3,4-b]pyridines as ectonucleotide pyrophosphatase/phosphodiesterase 1 (ENPP1) modulators” (SANFORD BURNHAM PREBYS MEDICAL DISCOVERY INSTITUTE, priority 2019, dated 2026).

What was measured:
ENPP3 = biological target: T1, ENPP3 (Homo sapiens, UniProt O14638); assay: ENPP3 Km ATP assay; type: biochemical; details: ATP at Km
T1 sequence (O14638 1-875): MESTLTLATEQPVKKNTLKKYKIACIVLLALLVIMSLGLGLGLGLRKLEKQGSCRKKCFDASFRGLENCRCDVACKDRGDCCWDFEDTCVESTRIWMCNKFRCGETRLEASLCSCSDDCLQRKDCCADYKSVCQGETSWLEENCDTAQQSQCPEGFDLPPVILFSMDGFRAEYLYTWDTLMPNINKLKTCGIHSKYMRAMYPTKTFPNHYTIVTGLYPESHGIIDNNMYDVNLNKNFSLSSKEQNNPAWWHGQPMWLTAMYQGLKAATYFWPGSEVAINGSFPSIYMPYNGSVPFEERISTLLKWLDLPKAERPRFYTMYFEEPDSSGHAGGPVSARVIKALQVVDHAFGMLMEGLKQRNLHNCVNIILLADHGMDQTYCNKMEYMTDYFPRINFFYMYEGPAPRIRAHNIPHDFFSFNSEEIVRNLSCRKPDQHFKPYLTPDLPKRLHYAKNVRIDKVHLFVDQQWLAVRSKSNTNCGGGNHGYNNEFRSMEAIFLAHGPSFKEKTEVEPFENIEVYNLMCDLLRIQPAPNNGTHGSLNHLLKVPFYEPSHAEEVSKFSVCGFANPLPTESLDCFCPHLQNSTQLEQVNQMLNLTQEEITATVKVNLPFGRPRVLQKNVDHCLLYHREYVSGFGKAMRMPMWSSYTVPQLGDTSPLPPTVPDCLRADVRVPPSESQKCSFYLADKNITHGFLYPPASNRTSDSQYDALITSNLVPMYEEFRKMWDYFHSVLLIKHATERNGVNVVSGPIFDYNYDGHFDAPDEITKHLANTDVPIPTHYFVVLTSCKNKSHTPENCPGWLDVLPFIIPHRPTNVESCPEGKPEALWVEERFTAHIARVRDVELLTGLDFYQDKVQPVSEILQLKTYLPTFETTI

human ENPP1 = biological target: T2, human ENPP1 (Homo sapiens, UniProt P22413); assay: ENPP1 assay with ATP substrate (Transcreener AMP2/GMP2 TR-FRET); type: biochemical; details: 1 hour at room temperature
T2 construct: made in house
T2 sequence (P22413 1-925): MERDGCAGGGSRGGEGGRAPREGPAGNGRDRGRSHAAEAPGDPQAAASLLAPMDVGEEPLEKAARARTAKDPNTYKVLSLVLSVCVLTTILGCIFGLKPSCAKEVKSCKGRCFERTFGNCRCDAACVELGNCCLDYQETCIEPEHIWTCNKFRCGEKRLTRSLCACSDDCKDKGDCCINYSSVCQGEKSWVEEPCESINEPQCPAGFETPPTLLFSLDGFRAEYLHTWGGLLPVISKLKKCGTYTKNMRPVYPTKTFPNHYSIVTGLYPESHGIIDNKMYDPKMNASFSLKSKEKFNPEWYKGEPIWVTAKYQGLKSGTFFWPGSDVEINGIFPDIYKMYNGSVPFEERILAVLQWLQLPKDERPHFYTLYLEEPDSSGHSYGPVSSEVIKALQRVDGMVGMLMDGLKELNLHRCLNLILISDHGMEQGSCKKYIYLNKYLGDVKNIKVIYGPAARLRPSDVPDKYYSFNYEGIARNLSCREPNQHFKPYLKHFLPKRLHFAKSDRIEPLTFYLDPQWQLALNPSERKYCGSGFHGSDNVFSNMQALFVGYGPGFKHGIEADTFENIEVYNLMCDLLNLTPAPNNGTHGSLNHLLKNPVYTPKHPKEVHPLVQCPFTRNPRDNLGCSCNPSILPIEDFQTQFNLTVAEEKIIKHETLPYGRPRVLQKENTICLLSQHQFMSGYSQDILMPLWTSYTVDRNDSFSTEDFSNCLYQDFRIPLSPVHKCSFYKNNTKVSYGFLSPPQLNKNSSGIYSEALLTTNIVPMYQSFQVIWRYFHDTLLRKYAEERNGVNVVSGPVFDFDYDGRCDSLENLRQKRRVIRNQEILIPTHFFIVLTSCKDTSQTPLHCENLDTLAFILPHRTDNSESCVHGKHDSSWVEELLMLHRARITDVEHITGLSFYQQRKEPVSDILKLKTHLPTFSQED
Method in brief: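 Reaction ran 1 h at room temperature in pH 7.5 Tris with MgCl2, TCEP, Tween 20 and 1% DMSO. ATP was added as a 300 nM stock and enzyme as an 8.5 μM stock. After EDTA stop, AMP was read by TR-FRET tracer displacement. Percent inhibition used enzyme/no-enzyme controls; IC50 was fitted with a variable slope.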

`CNc1cc(NCc2ccc(S(N)(=O)=O)cc2)c2cnn(C)c2n1` [Example 2.76, 4-(((1-Methyl-6-(methylamino)-1H-pyrazolo[3,4-b]pyridin-4-yl)amino)methyl)-benzenesulfonamide] gave an IC50 (ENPP3) of 0.1 to 1 µM and an IC50 (human ENPP1) of 1 to 20 µM.

With `CCNc1cc(NCc2ccc(S(N)(=O)=O)cc2)c2cnn(C)c2n1` [Example 2.75, 4-(((6-(Ethylamino)-1-methyl-1H-pyrazolo[3,4-b]pyridin-4-yl)amino)methyl)-benzenesulfonamide] the IC50 (ENPP3) was 1 to 20 µM and the IC50 (human ENPP1) was 0.1 to 1 µM.

`Cc1csc2c(N3CCC(NCc4ccccc4)CC3)ncnc12` [Example 3.0, N-Benzyl-1-(7-methylthieno[3,2-d]pyrimidin-4-yl)piperidin-4-amine] was tested, and the IC50 (ENPP3) was > 20 µM and the IC50 (human ENPP1) was 0.1 to 1 µM.

`CC(Nc1ncnc2scc(-c3ccccc3)c12)c1ccc(S(N)(=O)=O)cc1` (stereo not shown) [Example 1.65, 4-(1-(5-Phenylthieno[2,3-d]pyrimidin-4-yl)aminoethyl)benzenesulfonamide] gave an IC50 (ENPP3) of 1 to 20 µM and an IC50 (human ENPP1) of 1 to 20 µM.

In the case of `Cc1nc(N2CCC(NCCCc3ccc(F)cc3)CC2)c2cnn(C)c2n1` [Example 3.55, 1-(1,6-Dimethyl-1H-pyrazolo[3,4-d]pyrimidin-4-yl)-N-(3-(4-fluorophenyl)propyl)piperidin-4-amine], the IC50 (ENPP3) is reported as > 20 µM and the IC50 (human ENPP1) is reported as > 20 µM.

In the case of `CN1CCN(c2nc(NCc3ccc(S(N)(=O)=O)cc3)c3cnn(C)c3n2)CC1` [Example 2.34, 4-(((1-Methyl-6-(4-methylpiperazin-1-yl)-1H-pyrazolo[3,4-d]pyrimidin-4-yl)amino)methyl)-benzenesulfonamide], the IC50 (ENPP3) is reported as 0.1 to 1 µM and the IC50 (human ENPP1) is reported as > 20 µM.

`Cn1ncc2c(NCc3ccc(S(N)(=O)=O)c(Cl)c3)ncnc21` [Example 2.4, 2-Chloro-4-(((1-methyl-1H-pyrazolo[3,4-d]pyrimidin-4-yl)amino)methyl)-benzenesulfonamide] showed an IC50 (ENPP3) of 1 to 20 µM and an IC50 (human ENPP1) of 0.1 to 1 µM.

For `NS(=O)(=O)c1ccc(CNc2nc(NC3CCCCC3)nc3scc(-c4ccccc4)c23)cc1` [Example 1.40, 4-(((2-(Cyclohexylamino)-5-phenylthieno[2,3-d]pyrimidin-4-yl)amino)methyl)-benzenesulfonamide], the IC50 (ENPP3) was 1 to 20 µM and the IC50 (human ENPP1) was 0.1 to 1 µM.

In the case of `Cc1cc(CNc2ccnc3c2cnn3C)ccc1S(N)(=O)=O` [Example 2.70, 2-Methyl-4-(((1-methyl-1H-pyrazolo[3,4-b]pyridin-4-yl)amino)methyl)-benzenesulfonamide], the IC50 (ENPP3) is reported as 1 to 20 µM and the IC50 (human ENPP1) is reported as 0.1 to 1 µM.

For `COc1ccc(CCC(=O)NC2CCN(c3ncnc4c(C)csc34)CC2)cc1` [Example 3.31, 3-(4-Methoxyphenyl)-N-(1-(7-methylthieno[3,2-d]pyrimidin-4-yl)piperidin-4-yl)propanamide], the IC50 (ENPP3) was > 20 µM and the IC50 (human ENPP1) was > 20 µM.

For `NS(=O)(=O)c1ccc(CNc2nc(-c3ccccc3)nc3scc(-c4ccccc4)c23)cc1` [Example 1.24, 4-(((2,5-Diphenylthieno[2,3-d]pyrimidin-4-yl)amino)methyl)benzenesulfonamide], the IC50 (ENPP3) was > 20 µM and the IC50 (human ENPP1) was > 20 µM.

`Cn1nc(Cl)c2c(NCc3ccc(S(N)(=O)=O)cc3)ncnc21` [Example 2.90, 4-((3-Chloro-1-methyl-1H-pyrazolo[3,4-d]pyrimidin-4-yl)aminomethyl)-benzenesulfonamide] showed an IC50 (ENPP3) of 0.1 to 1 µM and an IC50 (human ENPP1) of 0.1 to 1 µM.

In the case of `CCn1ncc2c(NCc3ccc(S(N)(=O)=O)cc3)nc(OCCC(C)(C)OC)nc21` [Example 2.98, 4-((1-Ethyl-6-(3-methoxy-3-methylbutoxy)-1H-pyrazolo[3,4-d]pyrimidin-4-yl)aminomethyl)-benzenesulfonamide], the IC50 (ENPP3) is reported as 1 to 20 µM and the IC50 (human ENPP1) is reported as < 0.1 µM.

For `Cc1csc2c(N3CCC(NC(=O)CCc4ccncc4F)CC3)ncnc12` [Example 3.38, 3-(3-fluoropyridin-4-yl)-N-(1-(7-methylthieno[3,2-d]pyrimidin-4-yl)piperidin-4-yl)propanamide], the IC50 (ENPP3) was > 20 µM and the IC50 (human ENPP1) was > 20 µM.

`Cn1nnc2c(NCc3ccc(S(N)(=O)=O)cc3)ncnc21` [Example 2.58, 4-(((3-Methyl-3H-[1,2,3]triazolo[4,5-d]pyrimidin-7-yl)amino)methyl)benzenesulfonamide] was tested, and the IC50 (ENPP3) was 1 to 20 µM and the IC50 (human ENPP1) was 1 to 20 µM.

In the case of `COCCN(C)c1nc(NCc2ccc(S(N)(=O)=O)cc2)c2c(-c3ccccc3)csc2n1` [Example 1.55, 4-((2-(N-Methyl-N-(2-methoxyethyl)amino)-5-phenylthieno[2,3-d]pyrimidin-4-yl)aminomethyl)benzenesulfonamide], the IC50 (ENPP3) is reported as 0.1 to 1 µM and the IC50 (human ENPP1) is reported as < 0.1 µM.

Work on `Cn1ncc2c(NCc3ccc(S(N)(=O)=O)cc3)cc(C3CC3)nc21` [Example 2.134, 4-((6-Cyclopropyl-1-methyl-1H-pyrazolo[3,4-b]pyridin-4-yl)aminomethyl)-benzenesulfonamide] yielded an IC50 (ENPP3) of 1 to 20 µM and an IC50 (human ENPP1) of 1 to 20 µM.

For `Cn1ncc2c(NCc3ccc(S(N)(=O)=O)cc3)nc(Cl)nc21` [Example 2.92, 4-((6-Chloro-1-methyl-1H-pyrazolo[3,4-d]pyrimidin-4-yl)aminomethyl)-benzenesulfonamide], the IC50 (ENPP3) was 0.1 to 1 µM and the IC50 (human ENPP1) was < 0.1 µM.

In the case of `CSc1nc(NCc2ccc(S(N)(=O)=O)cc2)c2cnn(C)c2n1` [Example 2.107, 4-((1-Methyl-6-(methylsulfanyl)-1H-pyrazolo[3,4-d]pyrimidin-4-yl)aminomethyl)-benzenesulfonamide], the IC50 (ENPP3) is reported as < 0.1 µM and the IC50 (human ENPP1) is reported as < 0.1 µM.

With `NS(=O)(=O)c1ccc(CNc2nc(-c3ccccn3)nc3scc(-c4ccccc4)c23)cc1` [Example 1.6, 4-(((5-Phenyl-2-(pyridin-2-yl)thieno[2,3-d]pyrimidin-4-yl)amino)methyl)benzenesulfonamide] the IC50 (ENPP3) was < 0.1 µM and the IC50 (human ENPP1) was < 0.1 µM.

In the case of `Cn1ncc2c(NCc3ccc(S(N)(=O)=O)c(F)c3)ncnc21` [Example 2.1, 2-Fluoro-4-(((1-methyl-1H-pyrazolo[3,4-d]pyrimidin-4-yl)amino)methyl)-benzenesulfonamide], the IC50 (ENPP3) is reported as 1 to 20 µM and the IC50 (human ENPP1) is reported as < 0.1 µM.

`Cn1ncc2c(NCc3ccc(S(N)(=O)=O)cc3F)cc(Cl)nc21` [Example 2.143, 4-(((6-Chloro-1-methyl-1H-pyrazolo[3,4-b]pyridin-4-yl)amino)methyl)-3-fluorobenzenesulfonamide] was tested, and the IC50 (ENPP3) was < 0.1 µM and the IC50 (human ENPP1) was < 0.1 µM.

`Cn1ncc2c(NCc3ccc(S(N)(=O)=O)cc3)nc(N3CCCCC3)nc21` [Example 2.14, 4-(((1-Methyl-6-(piperidin-1-yl)-1H-pyrazolo[3,4-d]pyrimidin-4-yl)amino)methyl)-benzenesulfonamide] was tested, and the IC50 (ENPP3) was 0.1 to 1 µM and the IC50 (human ENPP1) was 1 to 20 µM.

`Cc1csc2c(N3CCC(NCc4ccncc4)CC3)ncnc12` [Example 3.2, 1-(7-Methylthieno[3,2-d]pyrimidin-4-yl)-N-(pyridin-4-ylmethyl)piperidin-4-amine] was tested, and the IC50 (ENPP3) was > 20 µM and the IC50 (human ENPP1) was 1 to 20 µM.

For `Cn1ncc2c(NCc3ccc(S(N)(=O)=O)cc3F)ccnc21` [Example 2.64, 3-Fluoro-4-(((1-methyl-1H-pyrazolo[3,4-b]pyridin-4-yl)amino)methyl)benzenesulfonamide], the IC50 (ENPP3) was 0.1 to 1 µM and the IC50 (human ENPP1) was < 0.1 µM.

In the case of `Cc1csc2c(N3CCC(NC(=O)Cc4ccc(F)cc4)CC3)ncnc12` [Example 3.43, 2-(4-Fluorophenyl)-N-(1-(7-methylthieno[3,2-d]pyrimidin-4-yl)piperidin-4-yl)acetamide], the IC50 (ENPP3) is reported as > 20 µM and the IC50 (human ENPP1) is reported as 1 to 20 µM.
